The data set is described as follows: Human HepG2 cell viability assay in 384 well format. The class given is toxicity, cell-based. More on the design: dose 125 nL, time 70.5 hour; concentration not given beside the values. Conditions: HepG2 cells, read-out: Inhibition.
Regarding `Cc1nc(CN2CCCN(C(=O)c3sccc3C#N)CC2)cs1`, the cytotoxicity at 70.5 h was 0.736%.
`O=C(c1sccc1C1CC1)N1CCN(Cc2cscn2)CC1`: the cytotoxicity at 70.5 h is 5.77%.
For the compound `CC(Cn1cccn1)NC(=O)NCc1ccoc1` (stereo not drawn), the cytotoxicity at 70.5 h was -10.1%.
As to `CC(C)NC(=O)NCc1ccc(C(=O)NC(C)Cn2cccn2)cc1` (stereo not drawn), the cytotoxicity at 70.5 h was -13.2%.
For `Cc1ccc(CNC(=O)NC(C)Cn2cccn2)cn1` (stereo not drawn), the cytotoxicity at 70.5 h is -9.6%.
With `Cc1ccoc1C(=O)NC1CCN(C(=O)Nc2ccccn2)CC1`, the cytotoxicity at 70.5 h is -5.66%.
In the case of `COc1ccccc1C(=O)N(C)Cc1nnc2ccccn12` it was -14%; in that of `COc1ccc(OC)c(C(=O)N(C)Cc2nnc3ccccn23)c1`, -15.1%.
`Cn1ccnc1CN1CCN(CC(O)c2cc(F)ccc2F)CC1` (stereo not drawn): the cytotoxicity at 70.5 h is -10.1%.
Next, `CC(c1cccc(F)c1)N1CCN(Cc2nccn2C)CC1` (stereo not drawn): -9.9%; `CC(C)c1nc2c(n1C)CCN(CC(=O)Nc1ccnn1C(C)C)C2`: 0.248%.
As for `COc1ccc(OCCC(=O)N2CCCC2Cn2cccn2)cc1` (stereo not drawn), the cytotoxicity at 70.5 h was 0.4%.
Next, `O=C(c1ccc(O)nc1)N1CCC(Nc2cccnn2)CC1`: -8.37%.
Next, `Cc1cnn(CC2CN(Cc3nc4cccnc4[nH]3)CCO2)c1` (stereo not drawn): 7.51%; `CN(Cc1cnn(C)c1)CC1CCCN1c1cccnn1` (stereo not drawn): -4.73%.
Next, `CN1CCN(C2CCN(Cc3nnc(C(C)(C)C)o3)CC2)C1=O`: -1.9%; `CC(=O)Nc1nc(CN2CCOC(Cn3cncn3)C2)cs1` (stereo not drawn): -5.38%.
Consider `COCc1nc(C(=O)N2CCCC2Cn2cc(C)cn2)cs1` (stereo not drawn), for which the cytotoxicity at 70.5 h was -6.43%.
In the case of `O=C(NCCCNc1ccc(C(F)(F)F)cn1)c1ccc(F)cc1F` it was -4.42%; in that of `O=C(NCCNc1ccc(C(F)(F)F)cn1)c1cc(Cl)ccc1F`, -4.63%.
For the compound `COCCN1CC(C(=O)NCc2cccnc2-n2cccn2)CC1=O` (stereo not drawn), the cytotoxicity at 70.5 h is -7.22%.
Next, `CC(C)CN1CC(C(=O)NCc2cccnc2-n2cccn2)CC1=O` (stereo not drawn): -8.02%; `O=C(CCn1cncn1)NCC(c1ccco1)N1CCCCC1` (stereo not drawn): 7%.
Next, `O=C(c1cc(F)ccc1F)C1CCN(C(=O)c2cnccn2)CC1`: -4.44%; `CC(C)N(Cc1cccc(Cl)c1)Cc1nc2c(cnn2C)c(=O)[nH]1`: 6.79%; `CCN(Cc1ccc(F)c(F)c1)Cc1nc2c(cnn2C)c(=O)[nH]1`: -4.48%.
`Cc1cnc(C(=O)N2CCC(C(=O)c3cc(F)ccc3F)CC2)cn1`: the cytotoxicity at 70.5 h is -5.07%.
Next, `Cc1cccc(C(=O)N2CCC(C(=O)c3cc(F)ccc3F)CC2)n1`: -7.52%.
In the case of `O=C(NCCc1ccn(-c2ccccc2)n1)N1CCCC(O)C1` (stereo not drawn) it was 1.8%; in that of `Cc1cnn(CC2CCCCN2C(=O)c2ccc3[nH]cnc3c2)c1` (stereo not drawn), 8.11%.
Next, `O=C(CNCCn1cccn1)NCC1(c2ccccc2)CCC1`: 1.86%; `O=C(CCCc1cccs1)N1CCC(N2CCNC2=O)CC1`: 22.1%; `CCc1csc(C2CCCN(C(=O)c3ccc4[nH]nnc4c3)C2)n1` (stereo not drawn): -0.976%.
Regarding `O=C(CCc1cccs1)N1CCCC(N2CCNC2=O)C1` (stereo not drawn), the cytotoxicity at 70.5 h was -5.71%.
In the case of `CCc1nc(C2CCCN(C(=O)c3ccc(OC)cc3)C2)no1` (stereo not drawn) it was 0.812%; in that of `CCn1c(C)nnc1CN(C)C1CCN(CCCSC)C1` (stereo not drawn), 26.5%; in that of `CC(=O)N(Cc1ncc(C)o1)C1CCN(Cc2sc(C)nc2C)C1` (stereo not drawn), -3.28%.
For the compound `CCCc1n[nH]c(C2CN(C(=O)c3ccnc(C4CC4)n3)CCO2)n1` (stereo not drawn), the cytotoxicity at 70.5 h was -1.45%.
As for `CCCc1nc(CNCC2CCCN2c2cccnn2)no1` (stereo not drawn), the cytotoxicity at 70.5 h was determined as 22.6%.
In the case of `CCc1noc(CNCC2CCCN2c2cccnn2)n1` (stereo not drawn) it was 1.91%.
With `CCc1nc(C2CCCN(C(=O)CC3CCOCC3)C2)no1` (stereo not drawn), the cytotoxicity at 70.5 h is -8.83%.
Next, `CS(=O)(=O)NC1CCCN(C(=O)NCc2ccoc2)C1` (stereo not drawn): 0.0228%.
Take `CS(=O)(=O)NC1CCCN(C(=O)NCc2cccc(F)c2)C1` (stereo not drawn): the cytotoxicity at 70.5 h is -4.51%.
In the case of `Cc1ccc(C(CNC(=O)Nc2cn[nH]c2)N2CCOCC2)o1` (stereo not drawn) it was -1.26%; in that of `CS(=O)(=O)NC1CCN(C(=O)NCc2cccnc2)CC1`, 2.6%.
In the case of `COc1ccnc(N2CCN(C(=O)Cc3ccsc3)CC2)n1`, the cytotoxicity at 70.5 h was -8.71%.
Turning to `Cc1nnc(C2Cc3ccccc3CN2Cc2c(C)noc2C)o1` (stereo not drawn), the cytotoxicity at 70.5 h is -1.11%.
With `CCc1nc(C2CCCN(C(=O)NC3CC3)C2)no1` (stereo not drawn), the cytotoxicity at 70.5 h is -0.741%.
Next, `Cc1ncc(C(=O)NC2CCc3nccn3C2)c(C(C)C)n1` (stereo not drawn): -3.83%; `CC(C)c1ccsc1C(=O)N1CCCN(Cc2cscn2)CC1`: 15.1%; `Cc1cnn(CCNCC(=O)NCC2(c3ccccc3)CCC2)c1`: 22.8%.
`CCn1c(C)nnc1CN(C)C1CCN(CCc2ccncc2)C1` (stereo not drawn): the cytotoxicity at 70.5 h was -3.16%.
Next, `O=C(NCCNc1ccc(C(F)(F)F)cn1)c1cncc(Br)c1`: -12.5%; `CCn1cnnc1CNC(=O)N1CCN(Cc2ccccc2)CC1`: -1.29%.
In the case of `CC(CNC(=O)Nc1cn[nH]c1)N1CCOCC1` (stereo not drawn) it was -12.1%; in that of `Cc1nn(C)c(N2CCOCC2)c1CNCc1ccnc(N(C)C)c1`, -5.34%; in that of `CS(=O)(=O)NC1CCCN(C(=O)NCc2cccnc2)C1` (stereo not drawn), -0.126%.
As to `Cc1nn(C)c(N2CCOCC2)c1CNCc1ccc(Cl)s1`, the cytotoxicity at 70.5 h was -2.69%.
Next, `COc1ccnc(N2CCN(C(=O)Cc3ccc(C#N)cc3)CC2)n1`: -0.995%; `Cc1nc2c(c(C)c1CC(=O)NCc1cccc(C#N)c1)c(=O)[nH]n2C`: -2.99%.
For the compound `Cc1nc(C)n(CC2CCCN(Cc3ccc(C(N)=O)cc3)C2)n1` (stereo not drawn), the cytotoxicity at 70.5 h is -4.6%.
On to `COc1ccccc1OCCC(=O)N1CCCC1Cn1cc(C)cn1` (stereo not drawn), for which the cytotoxicity at 70.5 h was -6.74%.
In the case of `O=C(CCc1nccs1)N1CCN(c2ncccn2)CC1` it was -1.61%; in that of `Cn1cnnc1C1CCCN(C(=O)c2cnc3ccccc3n2)C1` (stereo not drawn), -1.48%; in that of `COc1c(C2CCCN2C(=O)c2ccc3cc[nH]c3c2)c(C)nn1C` (stereo not drawn), -2.48%.
Next, `COc1c(C2CCCN2C(=O)c2cccc(C(N)=O)c2)c(C)nn1C` (stereo not drawn): 18.9%.
Next, `COc1c(C2CCCN2C(=O)c2ccnc(N(C)C)c2)c(C)nn1C` (stereo not drawn): -6.74%.
`Cc1ncsc1C(=O)N1CCCN(Cc2cscn2)CC1`: the cytotoxicity at 70.5 h is -12.1%.
Next, `CC1CN(C(=O)CN(Cc2ccccc2Br)C2CC2)CCO1` (stereo not drawn): -0.289%; `Cc1cc(CN2CCN(C(=O)c3sccc3C(C)C)CC2)no1`: -0.556%.
In the case of `c1ccc2oc(CCCN3CCOC(Cn4cccn4)C3)nc2c1` (stereo not drawn) it was 0.524%; in that of `COc1c(CNCC(c2cccc(F)c2)N(C)C)c(C(C)C)nn1C` (stereo not drawn), 12.7%.
Next, `CCc1ccc(OCC(O)CN2CCN(CCO)CC2)cc1` (stereo not drawn): -3.3%.
